{"source": "patent US20230287067A1", "about": "“HUMAN I[…] OF HEMO AND HHLA2 HUMAN ENDOGENOUS RETROVIRUSES (HERVS)” (priority 2020, published 2023)", "origin": "cited, not measured here", "key": {"HLA-A2": {"test_system": "HLA-A2", "details": "known property of control peptide"}, "HLA-A24": {"test_system": "HLA-A24", "details": "known property of control peptide"}}}
{"sequence": "SYLIRALTL", "values": [{"measurement": "binding to HLA-A2", "setting": "HLA-A2", "value": "not to HLA-A2"}, {"measurement": "binding to HLA-A24", "setting": "HLA-A24", "value": "binds strongly"}]}
{"sequence": "WLLPGTSTV [agonist peptide derived from the tumor-associated antigen Brachyury]", "values": [{"measurement": "binding to HLA-A2", "setting": "HLA-A2", "value": "bind strongly"}]}
